Assay results reported in ChEMBL document CHEMBL3608278 (J Med Chem, 2015).
pIC50: −log10 of the molar value.

Experiments:
[1] = biological target: T1, Potassium voltage-gated channel subfamily A member 3 (Homo sapiens, UniProt P22001); experiment: cell-based; parameters: species or system Blood
[2] = biological target: T1, Potassium voltage-gated channel subfamily A member 3; parameters: species or system Blood
[3] = biological target: T1, Potassium voltage-gated channel subfamily A member 3; type: cell-based, CHO-K1

T1 sequence (P22001 whole entry): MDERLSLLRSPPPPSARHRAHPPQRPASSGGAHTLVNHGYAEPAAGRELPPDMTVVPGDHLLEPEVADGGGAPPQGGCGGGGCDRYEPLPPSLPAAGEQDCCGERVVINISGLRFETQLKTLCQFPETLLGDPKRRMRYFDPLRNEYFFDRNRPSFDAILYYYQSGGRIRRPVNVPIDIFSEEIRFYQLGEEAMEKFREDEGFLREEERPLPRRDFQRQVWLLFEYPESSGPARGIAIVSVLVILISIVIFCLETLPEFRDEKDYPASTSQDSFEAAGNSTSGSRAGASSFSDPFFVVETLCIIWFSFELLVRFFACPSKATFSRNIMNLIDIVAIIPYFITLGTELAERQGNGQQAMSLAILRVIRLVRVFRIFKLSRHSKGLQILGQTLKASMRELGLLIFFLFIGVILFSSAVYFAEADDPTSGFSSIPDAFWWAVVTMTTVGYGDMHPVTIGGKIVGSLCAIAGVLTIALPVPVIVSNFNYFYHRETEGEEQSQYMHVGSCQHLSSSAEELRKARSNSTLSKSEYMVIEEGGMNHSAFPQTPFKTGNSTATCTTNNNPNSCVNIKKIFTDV

SMILES	pIC50 [1]	pIC50 [2]	pIC50 [3]
CC[C@H](C)[C@@H]1NC(=O)[C@@H](NC(=O)[C@H](CO)NC(=O)[C@@H](N)CCCNC(=N)N)CSSC[C@@H](C(=O)O)NC(=O)[C@H]([C@@H](C)O)NC(=O)CNC(=O)[C@@H]2CSSC[C@@H]3NC(=O)[C@H](CCC(N)=O)NC(=O)[C@H](Cc4ccccc4)NC(=O)[C@H](C)NC(=O)[C@H]([C@@H](C)O)NC(=O)[C@H](CSSC[C@H](NC(=O)[C@H](Cc4ccccc4)NC(=O)[C@H](CO)NC(=O)[C@H](CC(C)C)NC(=O)[C@H](CCCNC(=N)N)NC(=O)[C@H](Cc4ccc(O)cc4)NC(=O)[C@H](CCCCN)NC(=O)[C@H](CCSC)NC(=O)[C@H](CO)NC(=O)[C@H](Cc4cnc[nH]4)NC(=O)[C@H](CCCCN)NC3=O)C(=O)N[C@@H](CCCNC(=N)N)C(=O)N[C@@H](CCCCN)C(=O)N[C@@H]([C@@H](C)O)C(=O)N2)NC(=O)[C@H](CCCNC(=N)N)NC(=O)[C@H](CO)NC(=O)[C@H](CCCCN)NC(=O)[C@@H]2CCCN2C(=O)[C@H]([C@@H](C)CC)NC(=O)[C@H]([C@@H](C)O)NC(=O)[C@H](Cc2cccc3ccccc23)NC1=O	7.15	< 7.50	< 8.48
CC[C@H](C)[C@@H]1NC(=O)[C@@H](NC(=O)[C@H](CO)NC(=O)[C@@H](N)CCCNC(=N)N)CSSC[C@@H](C(=O)O)NC(=O)[C@H]([C@@H](C)O)NC(=O)CNC(=O)[C@@H]2CSSC[C@@H]3NC(=O)[C@H](CCC(N)=O)NC(=O)[C@H](Cc4ccccc4)NC(=O)[C@H](C)NC(=O)[C@H]([C@@H](C)O)NC(=O)[C@H](CSSC[C@H](NC(=O)[C@H](Cc4ccccc4)NC(=O)[C@H](CO)NC(=O)[C@H](CC(C)C)NC(=O)[C@H](CCCNC(=N)N)NC(=O)[C@H](Cc4ccc(O)cc4)NC(=O)[C@H](CCCCN)NC(=O)[C@H](CCSC)NC(=O)[C@H](CO)NC(=O)[C@H](Cc4c[nH]cn4)NC(=O)[C@H](CCCCN)NC3=O)C(=O)N[C@@H](CCCNC(=N)N)C(=O)N[C@@H](CCCCN)C(=O)N[C@@H]([C@@H](C)O)C(=O)N2)NC(=O)[C@H](CCCNC(=N)N)NC(=O)[C@H](CO)NC(=O)[C@H](CCCCN)NC(=O)[C@@H]2CCCN2C(=O)[C@H]([C@@H](C)CC)NC(=O)[C@H](Cc2cccc3ccccc23)NC(=O)[C@H](CC(=O)O)NC1=O	9.07	9.02	9.82
CC[C@H](C)[C@@H]1NC(=O)[C@@H](NC(=O)[C@H](CO)NC(=O)[C@@H](N)CCCNC(=N)N)CSSC[C@@H](C(=O)O)NC(=O)[C@H]([C@@H](C)O)NC(=O)CNC(=O)[C@@H]2CSSC[C@@H]3NC(=O)[C@H](CCC(N)=O)NC(=O)[C@H](Cc4ccccc4)NC(=O)[C@H](C)NC(=O)[C@H]([C@@H](C)O)NC(=O)[C@H](CSSC[C@H](NC(=O)[C@H](Cc4ccccc4)NC(=O)[C@H](CO)NC(=O)[C@H](CC(C)C)NC(=O)[C@H](CCCNC(=N)N)NC(=O)[C@H](Cc4ccc(O)cc4)NC(=O)[C@H](CCCCN)NC(=O)[C@H](CCSC)NC(=O)[C@H](CO)NC(=O)[C@H](Cc4cnc[nH]4)NC(=O)[C@H](CCCCN)NC3=O)C(=O)N[C@@H](CCCNC(=N)N)C(=O)N[C@@H](CCCCN)C(=O)N[C@@H]([C@@H](C)O)C(=O)N2)NC(=O)[C@H](CCCNC(=N)N)NC(=O)[C@H](CO)NC(=O)[C@H](CCCCN)NC(=O)[C@@H]2CCCN2C(=O)[C@H](Cc2cccc3ccccc23)NC(=O)[C@H]([C@@H](C)O)NC(=O)[C@H](CC(=O)O)NC1=O	7.94	7.74	< 8.48
CC[C@H](C)[C@@H]1NC(=O)[C@@H](NC(=O)[C@H](CO)NC(=O)[C@@H](N)CCCNC(=N)N)CSSC[C@@H](C(=O)O)NC(=O)[C@H]([C@@H](C)O)NC(=O)CNC(=O)[C@@H]2CSSC[C@@H]3NC(=O)[C@H](Cc4cccc5ccccc45)NC(=O)[C@H](Cc4ccccc4)NC(=O)[C@H](C)NC(=O)[C@H]([C@@H](C)O)NC(=O)[C@H](CSSC[C@H](NC(=O)[C@H](Cc4ccccc4)NC(=O)[C@H](CO)NC(=O)[C@H](CC(C)C)NC(=O)[C@H](CCCNC(=N)N)NC(=O)[C@H](Cc4ccc(O)cc4)NC(=O)[C@H](CCCCN)NC(=O)[C@H](CCSC)NC(=O)[C@H](CO)NC(=O)[C@H](Cc4cnc[nH]4)NC(=O)[C@H](CCCCN)NC3=O)C(=O)N[C@@H](CCCNC(=N)N)C(=O)N[C@@H](CCCCN)C(=O)N[C@@H]([C@@H](C)O)C(=O)N2)NC(=O)[C@H](CCCNC(=N)N)NC(=O)[C@H](CO)NC(=O)[C@H](CCCCN)NC(=O)[C@@H]2CCCN2C(=O)[C@H]([C@@H](C)CC)NC(=O)[C@H]([C@@H](C)O)NC(=O)[C@H](CC(=O)O)NC1=O	7.54	8.02	8.84
CC[C@H](C)[C@@H]1NC(=O)[C@@H](NC(=O)[C@H](CO)NC(=O)[C@@H](N)CCCNC(=N)N)CSSC[C@@H](C(=O)O)NC(=O)[C@H]([C@@H](C)O)NC(=O)CNC(=O)[C@@H]2CSSC[C@@H]3NC(=O)[C@H](CCC(N)=O)NC(=O)[C@H](Cc4ccccc4)NC(=O)[C@H](C)NC(=O)[C@H]([C@@H](C)O)NC(=O)[C@H](CSSC[C@H](NC(=O)[C@H](Cc4ccccc4)NC(=O)[C@H](CO)NC(=O)[C@H](CC(C)C)NC(=O)[C@H](CCCNC(=N)N)NC(=O)[C@H](Cc4ccc(O)cc4)NC(=O)[C@H](CCCCN)NC(=O)[C@H](CCSC)NC(=O)[C@H](Cc4cccc5ccccc45)NC(=O)[C@H](Cc4cnc[nH]4)NC(=O)[C@H](CCCCN)NC3=O)C(=O)N[C@@H](CCCNC(=N)N)C(=O)N[C@@H](CCCCN)C(=O)N[C@@H]([C@@H](C)O)C(=O)N2)NC(=O)[C@H](CCCNC(=N)N)NC(=O)[C@H](CO)NC(=O)[C@H](CCCCN)NC(=O)[C@@H]2CCCN2C(=O)[C@H]([C@@H](C)CC)NC(=O)[C@H]([C@@H](C)O)NC(=O)[C@H](CC(=O)O)NC1=O	< 7.00	< 7.00	< 8.48
CC[C@H](C)[C@@H]1NC(=O)[C@@H](NC(=O)[C@H](CO)NC(=O)[C@@H](N)CCCNC(=N)N)CSSC[C@@H](C(=O)O)NC(=O)[C@H]([C@@H](C)O)NC(=O)CNC(=O)[C@@H]2CSSC[C@@H]3NC(=O)[C@H](CCC(N)=O)NC(=O)[C@H](Cc4ccccc4)NC(=O)[C@H](C)NC(=O)[C@H]([C@@H](C)O)NC(=O)[C@H](CSSC[C@H](NC(=O)[C@H](Cc4ccccc4)NC(=O)[C@H](CO)NC(=O)[C@H](CC(C)C)NC(=O)[C@H](CCCNC(=N)N)NC(=O)[C@H](Cc4ccc(O)cc4)NC(=O)[C@H](CCCCN)NC(=O)[C@H](Cc4cccc5ccccc45)NC(=O)[C@H](CO)NC(=O)[C@H](Cc4cnc[nH]4)NC(=O)[C@H](CCCCN)NC3=O)C(=O)N[C@@H](CCCNC(=N)N)C(=O)N[C@@H](CCCCN)C(=O)N[C@@H]([C@@H](C)O)C(=O)N2)NC(=O)[C@H](CCCNC(=N)N)NC(=O)[C@H](CO)NC(=O)[C@H](CCCCN)NC(=O)[C@@H]2CCCN2C(=O)[C@H]([C@@H](C)CC)NC(=O)[C@H]([C@@H](C)O)NC(=O)[C@H](CC(=O)O)NC1=O	8.18	8.09	9.07
CC[C@H](C)[C@@H]1NC(=O)[C@@H](NC(=O)[C@H](CO)NC(=O)[C@@H](N)CCCNC(=N)N)CSSC[C@@H](C(=O)O)NC(=O)[C@H]([C@@H](C)O)NC(=O)CNC(=O)[C@@H]2CSSC[C@@H]3NC(=O)[C@H](CCC(N)=O)NC(=O)[C@H](Cc4ccccc4)NC(=O)[C@H](C)NC(=O)[C@H]([C@@H](C)O)NC(=O)[C@H](CSSC[C@H](NC(=O)[C@H](Cc4ccccc4)NC(=O)[C@H](CO)NC(=O)[C@H](CC(C)C)NC(=O)[C@H](CCCNC(=N)N)NC(=O)[C@H](Cc4ccc(O)cc4)NC(=O)[C@H](Cc4cccc5ccccc45)NC(=O)[C@H](CCSC)NC(=O)[C@H](CO)NC(=O)[C@H](Cc4cnc[nH]4)NC(=O)[C@H](CCCCN)NC3=O)C(=O)N[C@@H](CCCNC(=N)N)C(=O)N[C@@H](CCCCN)C(=O)N[C@@H]([C@@H](C)O)C(=O)N2)NC(=O)[C@H](CCCNC(=N)N)NC(=O)[C@H](CO)NC(=O)[C@H](CCCCN)NC(=O)[C@@H]2CCCN2C(=O)[C@H]([C@@H](C)CC)NC(=O)[C@H]([C@@H](C)O)NC(=O)[C@H](CC(=O)O)NC1=O	< 7.00	< 7.00	< 8.48
CC[C@H](C)[C@@H]1NC(=O)[C@@H](NC(=O)[C@H](CO)NC(=O)[C@@H](N)CCCNC(=N)N)CSSC[C@@H](C(=O)O)NC(=O)[C@H]([C@@H](C)O)NC(=O)CNC(=O)[C@@H]2CSSC[C@@H]3NC(=O)[C@H](CCC(N)=O)NC(=O)[C@H](Cc4ccccc4)NC(=O)[C@H](C)NC(=O)[C@H]([C@@H](C)O)NC(=O)[C@H](CSSC[C@H](NC(=O)[C@H](Cc4ccccc4)NC(=O)[C@H](CO)NC(=O)[C@H](Cc4cccc5ccccc45)NC(=O)[C@H](CCCNC(=N)N)NC(=O)[C@H](Cc4ccc(O)cc4)NC(=O)[C@H](CCCCN)NC(=O)[C@H](CCSC)NC(=O)[C@H](CO)NC(=O)[C@H](Cc4cnc[nH]4)NC(=O)[C@H](CCCCN)NC3=O)C(=O)N[C@@H](CCCNC(=N)N)C(=O)N[C@@H](CCCCN)C(=O)N[C@@H]([C@@H](C)O)C(=O)N2)NC(=O)[C@H](CCCNC(=N)N)NC(=O)[C@H](CO)NC(=O)[C@H](CCCCN)NC(=O)[C@@H]2CCCN2C(=O)[C@H]([C@@H](C)CC)NC(=O)[C@H]([C@@H](C)O)NC(=O)[C@H](CC(=O)O)NC1=O	10.21	10.08	9.99
